Results: US20180136198A1, “SYNAPTIC VESICLE CYCLING ASSAYS AND SYSTEMS” (priority 2008, published 2018)

Key:
Format in all cases: cell-based
[1] = tested on: rat embryonic cortical neurons; test: synaptopHluorin fluorescence at whole-well level, Zeiss Axiovert Z1 inverted epifluorescence microscope
Source text: By introduction into a high percentage of neurons plated at high density within a well, synaptopHluorins were used to measure synaptic vesicle cycling at the whole-well, population level. One way synaptopHluorin was introduced into neurons was by viral infection. Viral delivery of synaptopHluorin was used to validate the ability to measure the synaptic vesicle cycle at the population level. Adeno-associated virus (MOI=1000) was used to deliver synaptopHluorin into rat embryonic cortical neurons plated in 96-well optically-clear plastic-bottomed plates (Nunc) at 11 days in vitro. At 21 days in vitro, neurons were imaged on a Zeiss Axiovert Z1 inverted epifluoresence microscope using low magnification optics (10×, 0.45 NA objective) insufficient to resolve individual synapses. Neurons in the presence or absence of external Ca^++ were treated with ionomycin, a calcium ionophore that triggers synaptic vesicle exocytosis and the resulting fluorescence of synaptopHluorin.

[2] = tested on: Primary rat neuronal cultures; test: synaptopHluorin fluorescence in 96-well plates on the plate::vision plate reader; conditions: Tyrode's solution, read every 2 seconds for 1 minute
Procedure: The plate::vision plate reader was evaluated for its ability to record the synaptic vesicle cycle in multiple wells in parallel. Primary rat neuronal cultures in 96-well plates were infected with the synaptopHluorin adeno-associated virus at 12 days in vitro. Culture medium was replaced with Tyrode's solution plus or minus external Ca^++. A baseline recording of fluorescence was measured in the entire plate on the plate::vision plate reader. Then, ionomycin was added to all wells, and fluorescence changes were measured every 2 seconds for 1 minute. […] These changes were similar to those observed when a similar experiment was performed on the Zeiss inverted epifluorescence microscope.

[3] = tested on: rat embryonic cortical neurons; test: sypHy fluorescence (synaptic vesicle exocytosis) on Fluoroskan Ascent FL plate reader; conditions: 10 uM; GFP-fluorescence recorded at 5 Hz; 33 DIV
Procedure: It was determined that a Fluoroskan Ascent FL plate reader is capable of measuring aspects of synaptic vesicle cycling, e.g., exocytosis, in neuronal cells expressing a synaptophysin-pHluorin reporter. Rat embryonic cortical neurons were cultured in Greiner uClear 96-well plates. At 7 DIV, cultures were infected with sypHy-AAV. At 33 DIV, culture media was replaced with assay buffer, the plate was loaded onto the Fluoroskan Ascent FL plate reader, and GFP-fluorescence was recorded at 5 Hz. This plate reader uses a photomultiplier tube (PMT) to measure the fluorescence levels in a single well at a time. A baseline fluorescence level was determined, ionomycin (10 uM) was added to induce synaptic vesicle exocytosis, and the resulting change in fluorescence was measured on by plate reader. […] (FIG. 27.)

C[C@H](CCC(=O)O)C[C@H](C)C[C@H](C)C(=O)/C=C(\O)[C@H](C)C[C@H](C)C/C=C/[C@@H](C)[C@@H](O)[C@@H](C)[C@@H](O)C[C@@H]1CC[C@@](C)([C@H]2CC[C@@](C)([C@@H](C)O)O2)O1 [ionomycin]
increase in synaptopHluorin signal ([1]; in the absence of external Ca++): about 3% | increase in synaptopHluorin signal ([1]; in the presence of external Ca++): approximately 20% | increase in fluorescence ([2]; absence of Ca++): < 5% | increase in fluorescence ([2]; in the presence of Ca++): about 20% | increase in fluorescence intensity [3]: ~15%
